Drawing on ChEMBL document CHEMBL3244341, “Potential antiinflammatory compounds. 2. Acidic antiinflammatory 1,2-benzisoxazoles” (J Med Chem, 1979), this text covers LD50, inhibition in vivo and inhibition for 7 compounds.

Activity calls are given as the source filed them. The calls are words filed in the database; no cut-off is given here.

The nature of data set [1]: Toxicity in po dosed mouse. It counts as organism-based. The settings on record: in vivo.
The test system of data set [2] is Rattus norvegicus. The experiment in a line: Antiinflammatory activity in rat assessed as reduction in carrageenan-induced foot edema at 50 mg/kg, po. The format is functional. On the technique in general: Carrageenan injected into the paw causes an acute inflammation.
Data set [3] deals with Rattus norvegicus. Briefly: Antiinflammatory activity in rat assessed as reduction in carrageenan-induced foot edema at 50 mg/kg, po relative to phenylbutazone-treated control. The format is functional.
Data set [4] deals with Rattus norvegicus. The experiment in a line: Antiinflammatory activity in rat assessed as reduction in carrageenan-induced foot edema at 50 mg/kg, po bid administered 3 hrs and again 0.5 hrs prior to carrageenan challenge relative to phenylbutazone-treated control. The format is functional.
The test system of data set [5] is Rattus norvegicus. The experiment in a line: Antiinflammatory activity in rat assessed as reduction in carrageenan-induced foot edema at 50 mg/kg, po bid administered 3 hrs and again 0.5 hrs prior to carrageenan challenge. The format is functional.
The species named for data set [6] is Rattus norvegicus. The experiment in a line: Antiinflammatory activity against mycobacterial adjuvant-induced arthritis in albino rat assessed as reduction in foot swelling by micrometer analysis. The format is functional, organism-based.
Data set [7] has as its system Rattus norvegicus. The experiment in a line: Antiinflammatory activity in rat assessed as reduction in carrageenan-induced foot edema at 25 mg/kg, po. The format is functional.
Data set [8] relates to Rattus norvegicus. The experiment in a line: Antiinflammatory activity in rat assessed as reduction in carrageenan-induced foot edema at 50 mg/kg, po relative to hydrocortisone-treated control. The format is functional.

For `O=C(O)Cc1cccc2c(-c3ccc(Cl)cc3)noc12`, in data set [1], the LD50 – broadly, the dose at which mortality reaches 50% – was found to be 600 mg/kg. Further, the inhibition in vivo – broadly, the share of the control response that was lost under treatment – at 50 mg/kg with Rattus norvegicus [2] was determined as 36%; in the data set with Rattus norvegicus [3], 49%.

`O=C(O)Cc1ccc2onc(-c3ccc(Cl)cc3)c2c1`: the inhibition in vivo at 50 mg/kg with Rattus norvegicus [4] was 36%; in the data set on Rattus norvegicus [5], 22%. In data set [1], this compound displayed an LD50 of 600 mg/kg.

`CC(C(=O)O)c1cccc2c(-c3ccc(Cl)cc3)noc12` (configuration not stated): the inhibition entry in the data set listed under Rattus norvegicus [6] is “Active”. Moreover, in data set [1], the LD50 was found to be 200 mg/kg. In addition, in the data set with Rattus norvegicus [7], the inhibition in vivo at 25 mg/kg came to 46%. Besides, in the data set on Rattus norvegicus [3], the inhibition in vivo at 50 mg/kg turned out to be 48%.

As to `CC(C(=O)O)c1ccc2c(-c3ccc(F)cc3)noc2c1` (configuration not stated), in data set [1], the LD50 was 400 mg/kg. Also, the inhibition in vivo at 50 mg/kg in the data set with Rattus norvegicus [2] was found to be 37%; with Rattus norvegicus [3], 57%.

Turning to `CC(C(=O)O)c1ccc2c(-c3ccc(Cl)cc3)noc2c1` (configuration not stated), in data set [1], the LD50 was 600 mg/kg. For the same compound, the results for the inhibition in vivo at 50 mg/kg in the data set on Rattus norvegicus [8] and in the data set on Rattus norvegicus [2] were 38% and 46%, respectively.

`CC(C(=O)O)c1ccc2onc(-c3ccc(Cl)cc3)c2c1` (configuration not stated) yielded an LD50 in data set [1] of 800 mg/kg. For the same compound, the inhibition in vivo at 50 mg/kg with Rattus norvegicus [8] came out at 38%; in the data set with Rattus norvegicus [2], 18%.

In data set [1], `CC(C(=O)O)c1cccc2c(-c3ccccc3)noc12` (configuration not stated) came in with an LD50 of 1600 mg/kg. Moreover, the inhibition in vivo at 50 mg/kg in the data set on Rattus norvegicus [2] came out at 42%; in the data set with Rattus norvegicus [3], 32%.
